The values below come from ChEMBL document CHEMBL1147698, “Design of a potent, soluble glucokinase activator with excellent in vivo efficacy” (Bioorg Med Chem Lett, 2006).

Series [1] is described as follows: Clearance in rat. In kind it is ADME, organism-based. The following applies: in vivo.
Series [2] in a line: Bioavailability in rat. In kind it is ADME, organism-based. As to conditions: in vivo; call rule not given here.
Series [3] can be described thus: Solubility of the compound. Type of series: physicochemical.
For series [4], the species on record is Rattus norvegicus. In words: Unbound clearance in rat. The following applies: in vivo. Type of series: ADME, organism-based.
A short description of series [5]: Percent of unbound ligand in rat plasma. Type of series: ADME, organism-based.
Series [6] relates to Rattus norvegicus. Briefly: Decrease in glucose level in Zucker rat at 1 mg/kg, po by oral glucose tolerance test. In kind it is ADME, organism-based. Also on record: dose 1 mg/kg, route oral. As to conditions: in vivo.
Series [7] has as its target T1, Hexokinase-4 (Homo sapiens, UniProt P35557).
T1 sequence (P35557 whole entry): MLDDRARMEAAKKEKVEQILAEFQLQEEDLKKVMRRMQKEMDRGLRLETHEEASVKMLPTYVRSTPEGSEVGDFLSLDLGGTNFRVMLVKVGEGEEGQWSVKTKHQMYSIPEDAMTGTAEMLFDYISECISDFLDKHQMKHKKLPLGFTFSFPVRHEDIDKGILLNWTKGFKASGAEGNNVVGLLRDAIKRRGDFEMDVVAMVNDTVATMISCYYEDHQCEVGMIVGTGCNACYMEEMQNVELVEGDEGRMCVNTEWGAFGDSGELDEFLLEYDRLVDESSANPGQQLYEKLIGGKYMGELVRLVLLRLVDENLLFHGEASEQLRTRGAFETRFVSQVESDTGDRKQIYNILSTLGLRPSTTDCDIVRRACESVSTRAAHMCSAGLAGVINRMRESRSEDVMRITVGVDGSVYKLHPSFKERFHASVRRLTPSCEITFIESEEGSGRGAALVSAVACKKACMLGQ
Description: Activation of glucokinase

A short description of series [8]: Intrinsic clearance in rat per 10^6 cells. Type of series: ADME.
Series [9] relates to Rattus norvegicus. Briefly: Decrease in glucose level in Zucker rat at 3 mg/kg, po by oral glucose tolerance test. In kind it is ADME, organism-based. On the set-up: dose 3 mg/kg, route oral. The following applies: in vivo.
For series [10], the species on record is Rattus norvegicus. In words: Decrease in glucose level in Zucker rat by oral glucose tolerance test. Type of series: ADME, organism-based. As to conditions: in vivo.
Series [11] is described as follows: Clearance in dog. In kind it is ADME, organism-based, Canis lupus familiaris. As to conditions: in vivo.
Series [12] in a line: Intrinsic clearance in dog per 10^6 cells. Type of series: ADME, Canis lupus familiaris. The following applies: not recorded.
Series [13] in a line: Bioavailability in dog. Type of series: ADME, organism-based, Canis lupus familiaris. The following applies: in vivo.
The species entered for series [14] is Canis familiaris. In words: Unbound clearance in dog. Type of series: ADME, organism-based, Canis lupus familiaris. As to conditions: in vivo.
Series [15] in a line: Percent of unbound ligand in dog plasma. In kind it is ADME, organism-based, Canis lupus familiaris.
For series [16], the species on record is Rattus norvegicus. Briefly: Hepatic blood flow in rat. In kind it is ADME, organism-based, Liver.
Series [17] is filed under the species Rattus norvegicus. In words: Clearance in rat measured as percent of hepatic blood flow. Type of series: ADME, organism-based, Liver. The following applies: in vivo.
The species entered for series [18] is Canis familiaris. Briefly: Clearance in dog measured as percent of hepatic blood flow. In kind it is ADME, organism-based, Canis lupus familiaris, Liver. As to conditions: in vivo.
The species entered for series [19] is Canis familiaris. Briefly: Hepatic blood flow in dog. In kind it is ADME, organism-based, Canis lupus familiaris, Liver.

SMILES strings stand for the structures. In brackets after ≈: the same amount, converted by molar mass.

By clearance is commonly meant a measure of how efficiently the substance is removed, as volume per time. In general, bioavailability refers to the share of a dose that reaches the circulation, judged against a reference dose that is usually intravenous. Higher therefore signals good availability. The term solubility denotes the concentration that dissolves in the medium under given conditions. Lower therefore signals little dissolved substance. One may read the CL/F as clearance divided by bioavailability, as obtained after extravascular dosing. What is called fraction unbound is free concentration divided by total concentration. Low values mean little free substance, high ones much free substance. By EC50 is commonly meant the concentration at which the effect is half-maximal. With `COC[C@H](C)Oc1cc(OC(C)C)cc(C(=O)Nc2ccc(C(=O)O)cn2)c1`, the clearance in [1] is 2.3 mL/min/kg. Further, in series [2], the bioavailability was 100%. This compound gave a solubility in series [3] of more than 3140 µM. In addition, in series [4], the CL/F stood at 43 mL/min/kg. This compound also gave a fraction unbound in series [5] of 0.0534. Besides, in series [6], the result was Active. The compound also showed an EC50 in series [7] of 610 nM.
Compound `COC[C@@H](C)Oc1cc(OC(C)C)cc(C(=O)Nc2ccc(C(=O)O)cn2)c1` showed a fraction unbound in series [5] of 0.0622. This compound also displayed an EC50 in [7] of 5510 nM.
What is called hepatocyte CLint is the capacity of the preparation to metabolise the compound, expressed as a volume cleared per time. A higher hepatocyte CLint goes with rapid turnover. As to `CC(C)Oc1cc(OCc2ccccc2)cc(C(=O)Nc2ccc(C(=O)O)cn2)c1`, the clearance in series [1] turned out to be 3.7 mL/min/kg. For the same compound, in series [4], the CL/F is 1850 mL/min/kg. This compound also displayed a fraction unbound in series [5] of 0.002. For the same compound, in [8], the hepatocyte CLint was less than 1 µL/min/1e6 cells.
`CC(C)Oc1cc(O[C@@H](C)Cc2ccccc2)cc(C(=O)Nc2ccc(C(=O)O)cn2)c1` displayed a bioavailability in [2] of 85%. The same compound gave a solubility in series [3] of 8 µM (≈ 3.48 µg/mL). This compound came in with a CL/F in series [4] of 1435 mL/min/kg. This compound also yielded an EC50 in series [7] of 20 nM. Moreover, the result in [9] was Active.
Turning to `COC[C@H](C)Oc1cc(O[C@@H](C)Cc2ccccc2)cc(C(=O)Nc2ccc(C(=O)O)cn2)c1`, in series [10], the Activity entry is reported as “Dose-dependent effect”. The bioavailability in [2] amounted to 99%; in [13], 100%. The clearance in series [11] came out at 4.4 mL/min/kg. Moreover, the hepatocyte CLint in series [12] is less than 1 µL/min/1e6 cells. In series [3], this compound yielded a solubility of 1350 µM (≈ 627 µg/mL). Also, the CL/F in series [4] was 475 mL/min/kg; in [14], 301 mL/min/kg.
Compound `CC(C)Oc1cc(O[C@H](C)Cc2ccccc2)cc(C(=O)Nc2ccc(C(=O)O)cn2)c1` came in with a fraction unbound in [5] of 0.0023. The compound also came in with an EC50 in [7] of 90 nM.
On to `CC(C)Oc1cc(O[C@H](C)c2ccccc2)cc(C(=O)Nc2ccc(C(=O)O)cn2)c1`, for which, in series [5], the fraction unbound came to 0.0048. This compound also showed an EC50 in series [7] of 950 nM.
Regarding `CC(C)Oc1cc(O[C@@H](C)c2ccccc2)cc(C(=O)Nc2ccc(C(=O)O)cn2)c1`, in series [4], the CL/F came out at 171 mL/min/kg. The compound further yielded a hepatocyte CLint in series [8] of less than 1 µL/min/1e6 cells. Moreover, the response in series [7] was half-maximal at 110 nM (EC50).
For `CC(C)Oc1cc(OCCc2ccsc2)cc(C(=O)Nc2ccc(C(=O)O)cn2)c1`, the fraction unbound came out at 0.0064 in series [15] and 0.0026 in series [5]. Further, the Activity in series [16] worked out at 72 mL/min/kg; in series [19], 31 mL/min/kg. The “%LBF” value amounted to 5.3% in [17] and 28% in [18]. For the same compound, in series [11], the clearance turned out to be 8.7 mL/min/kg. Moreover, the hepatocyte CLint in series [12] and in series [8] was less than 1 µL/min/1e6 cells throughout. The figures for the CL/F in series [4] and in series [14] were 1461 mL/min/kg and 1359 mL/min/kg, respectively.
